Laboratory results from patent publication US4678788A, “N-substituted 2-chloro-7-fluoro-10-piperazino-10,11-dihydrodibenzo (B,F) thiepins and acid addition salts thereof” (SPOFA, Spojene Podniky Pro Zdravotnickou Vyrobu, priority 1985, dated 1987).

Key:
mice = details: mouse, in vivo, po
Solubility in water = format: physicochemical
[1] = test system: dopamine levels in tuberculum olfactorium; experiment: Dopamine level in tuberculum olfactorium of the rat brain; format: in vivo; details: 20 mg/kg, in words
[2] = test system: apomorphine-elicited agitation and stereotypes in rats; experiment: Antiapomorphine action in rats; format: in vivo; details: for effect on apomorphine-elicited agitation / effect on apomorphine-elicited stereotypes: 20 and 50 mg/kg, by 2 h after administration; for antiapomorphine effect: 50 mg/kg, oral
[3] = test system: apomorphine emesis in dogs; experiment: Inhibition of apomorphine emesis in dogs; format: in vivo
[4] = biological target: T1, dopamine receptors in corpus striatum (Rattus norvegicus, UniProt P61169); experiment: Inhibition of 3H-spiperone binding, corpus striatum
T1 construct: dopamine receptors in the two brain structures; from tissue; host or cells: rat brain, corpus striatum

[5] = test system: spontaneous locomotor activity in mice; experiment: Inhibition of spontaneous locomotor activity in mice; format: in vivo; details: for times less active than compound A, inhibition of spontaneous locomotor activity: mice, relative to compound A
[6] = test system: homovanillic acid in corpus striatum; experiment: Homovanillic acid level in corpus striatum of the rat brain; format: in vivo
[7] = Acute toxicity in rats (oral); details: rat, in vivo
[8] = test system: apomorphine-induced climbing behavior of mice; experiment: Apomorphine-induced climbing behavior of mice; format: in vivo
[9] = test system: homovanillic acid in tuberculum olfactorium; experiment: Homovanillic acid level in tuberculum olfactorium of the rat brain; format: in vivo; details: 3 h after the administration
[10] = Rota-rod test in mice (motor coordination); details: mouse, po
[11] = test system: dopamine levels in corpus striatum; experiment: Dopamine level in corpus striatum of the rat brain; format: in vivo; details: for dopamine level, striatum: 20 mg/kg, in words
rats = experiment: Cataleptic activity in rats; details: for cataleptic activity: rats, 50 mg/kg, oral
in vivo = details: mouse, po
[12] = Rota-rod test in rats (motor coordination); details: rat, po
[13] = Overall antidopaminergic / neuroleptic activity and pharmacological profile; details: in words
[14] = Acute toxicity in mice, intravenous administration; details: mouse, in vivo
Experimental: (§1) The invention further includes 1-(2-chloro-7-fluoro-10, 11-dihydrodibenzo (b,f) thiepin-10-yl)-4-(2-(1,3-dioxan-2-yl) ethyl)piperazine, which is also tested as the methanesulfonate (compound C).

[15] = test system: cataleptogenic effect of perphenazine in rats; experiment: Potentiation of the cataleptogenic effect of perphenazine in rats; format: in vivo; details: 50 mg/kg, oral
Experimental: A further compound of the invention is 1-(2-chloro-7-fluoro-10, 11-dihydrodibenzo (b,f) thiepin-10-yl)-4-(2-(1,3-dioxolan-2-yl)ethyl)piperazine, which also was tested as the methanesulfonate (compound B). This compound and the following ones were likewise administered orally, and the data is calculated per bases.
as §1

motility of mice = details: Mus musculus, po, read-out: medium effective dose, motility of mice

T1 sequence (P61169 whole entry): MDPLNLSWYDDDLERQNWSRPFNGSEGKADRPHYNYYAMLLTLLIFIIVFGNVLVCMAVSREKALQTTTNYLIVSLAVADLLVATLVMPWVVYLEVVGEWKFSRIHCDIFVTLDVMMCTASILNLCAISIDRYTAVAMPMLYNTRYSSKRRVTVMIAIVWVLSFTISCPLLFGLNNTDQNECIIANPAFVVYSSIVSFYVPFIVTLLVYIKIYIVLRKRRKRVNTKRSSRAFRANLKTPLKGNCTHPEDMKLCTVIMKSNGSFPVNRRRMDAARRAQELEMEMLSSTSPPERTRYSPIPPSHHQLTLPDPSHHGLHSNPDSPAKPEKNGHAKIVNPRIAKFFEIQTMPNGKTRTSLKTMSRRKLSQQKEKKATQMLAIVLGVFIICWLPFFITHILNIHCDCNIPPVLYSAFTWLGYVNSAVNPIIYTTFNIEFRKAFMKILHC

SMILES | solubility in water (Solubility in water; monomethanesulfonate) | solubility in water (Solubility in water; neutral maleate) | dopamine level, tuberculum olfactorium [1] | effect on apomorphine-elicited agitation [2] | effect on apomorphine-elicited stereotypes [2] | TD50 [10] [mg/kg] | dopamine level, striatum [11] | cataleptic activity (rats) | times less active than compound A, inhibition of spontaneous locomotor activity [5] | pharmacological profile compared with compound A [13] | potentiation of the cataleptogenic effect of perphenazine [15] | antiapomorphine effect [2] | increase of homovanillic acid level in striatum ([6]; rat, 20 mg/kg, 3 h) [%] | LD50 (in vivo; LD50, mice, per base) [mg/kg] | increase of homovanillic acid level in striatum ([6]; rat, 80 mg/kg, 3 h, oral) | other results
NC(=O)CCN1CCN(C2Cc3cc(Cl)ccc3Sc3cc(F)ccc32)CC1 (stereo not shown) [Compound A] | excellently water-soluble | poorly soluble in water | does not significantly affect the dopamine levels | significantly inhibits the agitation | does not affect the apomorphine-elicited stereotypes | 2 | does not significantly affect the dopamine levels | lacks cataleptic activity |  |  |  |  |  |  |  | LD50 on longer evaluation of the toxicity test (mice): lower LD50 values; minimal effective dose ([3]; Canis lupus familiaris, oral, by 4 h after the administration, read-out: threshold activity dose, inhibition of apomorphine emesis): 2 mg/kg; inhibition of apomorphine emesis, duration ([3]; within 24 h): within 24 h the effect disappears; IC50 [4]: 49.7 nM; ED50 ([5]; Mus musculus, po, read-out: medium active dose D50, inhibition of spontaneous locomotor activity): 1.05 mg/kg; minimal effective dose ([6]; Rattus norvegicus, po, 3 h, read-out: threshold dose significantly increasing homovanillic acid concentration, corpus striatum): 5 mg/kg; level of homovanillic acid, corpus striatum ([6]; rat, 3 h after the administration): intensively increases; LD50 [7]: 654 mg/kg; ED50 ([8]; Mus musculus, po, read-out: medium effective dose PD50, apomorphine-induced climbing behavior): 2.9 mg/kg; level of homovanillic acid, tuberculum olfactorium [9]: intensively increases; minimal effective dose ([9]; oral, read-out: threshold dose significantly increasing homovanillic acid concentration, tuberculum olfactorium): 2 mg/kg; cataleptic activity (general statement) (rats; compounds of the invention, in words): noncataleptic; LD50 at 48 h (in vivo; LD50, female mice, per base): 316 mg/kg; LD50 at 48 h (in vivo; LD50, male mice, per base): 336 mg/kg; TD50 [12]: 19.5 mg/kg
CN(C)CCCN1c2ccccc2Sc2ccc(Cl)cc21 [chlorpromazine, reference compound] |  |  |  |  |  |  |  |  | 5 times |  |  |  |  |  |  | activity relative to compound A, climbing behavior ([8]; mice, % of activity of compound A): approx. 50%
Fc1ccc2c(c1)Sc1ccc(Cl)cc1CC2N1CCN(CCC2OCCCO2)CC1 (stereo not shown) [Compound C, 1-(2-chloro-7-fluoro-10, 11-dihydrodibenzo (b,f)thiepin-10-yl)-4-(2-(1,3-dioxan-2-yl)ethyl)piperazine] | excellently water-soluble | poorly soluble in water |  |  |  | 2.86 | the dopamine level is not affected | no cataleptic effect |  | approximately comparable | only mildly potentiates the cataleptogenic effect of perphenazine | does not reveal any antiapomorphine effect | 400 | > 500 |  | solubility in water (Solubility in water; neutral maleate, listed as Example 4): only very slightly soluble in water; LD50 [14]: 77.6 mg/kg; affinity to dopamine receptors in striatum, release of 3H spiperone ([4]; striatum, in words, compared with clozapine): approximately the same as with clozapine
Fc1ccc2c(c1)Sc1ccc(Cl)cc1CC2N1CCN(CCC2OCCO2)CC1 (stereo not shown) [Compound B, 1-(2-chloro-7-fluoro-10, 11-dihydrodibenzo (b,f)thiepin-10-yl)-4-(2-(1,3-dioxolan-2-yl)ethyl)piperazine] | readily water-soluble | slightly soluble in water |  |  |  | 3.5 |  | no cataleptic effect |  | approximately comparable | only mildly potentiates the cataleptogenic effect of perphenazine | only a slight indication of antiapomorphine effect |  | 350 | 504% | solubility in water (Solubility in water; monomethanesulfonate, listed as Example 3): excellently water-soluble; solubility (Solubility in water; water, monomethanesulfonate, aqueous solution, read-out: concentration of aqueous solutions provided): > 100 mg/mL; lowering of dopamine level in striatum ([11]; 80 mg/kg, 3 h): 25%
CN1CCN(C2=Nc3cc(Cl)ccc3Nc3ccccc32)CC1 [clozapine, 8-chloro-11-(4-methylpiperazine)-5H-dibenzo (b,e)-(1,4)diazepine, reference compound] |  |  | slightly decreases dopamine levels | effects neither agitation nor stereotypes | effects neither agitation nor stereotypes |  | slightly decreases dopamine levels | behaves similarly | approx. 4 times |  |  |  | 200 |  |  | 
NC(CCN1CCN(C2Cc3cc(Cl)ccc3Sc3cc(F)ccc32)CC1)=NO (stereo not shown) [Compound D] |  |  |  |  |  |  |  |  |  | approximately comparable |  |  |  |  | more than 300% | ED50 (motility of mice): 50 mg/kg; LD50 (in vivo): 320 mg/kg
